Laboratory results from publication PMC8319832, “Fine-Tuning of Alkaline Residues on the Hydrophilic Face Provides a Non-toxic Cationic α-Helical Antimicrobial Peptide Against Antibiotic-Resistant ESKAPE Pathogens” (Frontiers in Microbiology, 2021).
Values after ≈ are worked out from the molar mass of the structure shown.

Columns and labels:
S. epidermidis 888 [1] = test: Drug sensitivity, Kirby-Bauer test; format: cell-based; design: key: 'S' represents susceptibility; 'I' represents intermediate efficacy; 'R' represents resistance; settings: clinical isolate
Procedure: (§1) The bacteria used in this study included the standard strains S. aureus ATCC29213 and ATCC25923, E. faecalis ATCC29212, E. coli ATCC25922 and ATCC35218, A. baumannii ATCC19606, K. pneumoniae ATCC700603 and P. aeruginosa ATCC27853, these strains were purchased from the China Center of Type Culture Collection (CCTCC). The antimicrobial activities of the peptides were also determined against clinically isolated strains S. aureus 4188, 9124, 1176, S. epidermidis 9092, 6943, 888, E. faecalis 901, E. faecium 898, E. coli 2678, 2687, K. pneumoniae 9126, P. aeruginosa 9014, 9042, and A. baumannii 906, 13012, 13079, 9068, these strains were acquired from Taihe Hospital, Hubei University of Medicine. The drug sensitivities of the clinical isolates to the antibiotics were determined by the Kirby-Bauer test ([Chinnambedu et al., 2020]).

E. faecalis 901 [2] = test: Drug sensitivity, Kirby-Bauer test; format: cell-based; design: key: 'S' represents susceptibility; 'I' represents intermediate efficacy; 'R' represents resistance; settings: clinical isolate
Procedure: as §1

S. epidermidis 6943 [3] = test: Drug sensitivity, Kirby-Bauer test; format: cell-based; design: key: 'S' represents susceptibility; 'I' represents intermediate efficacy; 'R' represents resistance; settings: clinical isolate, MRSE
Procedure: as §1

S. epidermidis 9092 [4] = test: Drug sensitivity, Kirby-Bauer test; format: cell-based; design: key: 'S' represents susceptibility; 'I' represents intermediate efficacy; 'R' represents resistance; settings: clinical isolate, MRSE
Procedure: as §1

E. faecium 898 [5] = test: Drug sensitivity, Kirby-Bauer test; format: cell-based, Enterococcus faecium; design: key: 'S' represents susceptibility; 'I' represents intermediate efficacy; 'R' represents resistance; settings: clinical isolate
Procedure: as §1

S. aureus 9124 [6] = test: Drug sensitivity, Kirby-Bauer test; format: cell-based, Staphylococcus aureus; design: key: 'S' represents susceptibility; 'I' represents intermediate efficacy; 'R' represents resistance; settings: clinical isolate, MRSA
Procedure: as §1

S. aureus 1176 [7] = test: Drug sensitivity, Kirby-Bauer test; format: cell-based, Staphylococcus aureus; design: key: 'S' represents susceptibility; 'I' represents intermediate efficacy; 'R' represents resistance; settings: clinical isolate
Procedure: as §1

S. aureus 4188 [8] = test: Drug sensitivity, Kirby-Bauer test; format: cell-based, Staphylococcus aureus; design: key: 'S' represents susceptibility; 'I' represents intermediate efficacy; 'R' represents resistance; settings: clinical isolate
Procedure: as §1

A. baumannii 13012 = test: MIC, broth dilution; format: cell-based, Acinetobacter baumannii; settings: CLSI broth dilution, MHB, 37°C, 20 h, OD630, at least three repeats; clinical isolate, CRE, MDR
From the text: (§2) All experiments were repeated at least three times.

A. baumannii 13079 = test: MIC, broth dilution; format: cell-based, Acinetobacter baumannii; settings: CLSI broth dilution, MHB, 37°C, 20 h, OD630, at least three repeats; clinical isolate, CRE, MDR
From the text: as §2

A. baumannii 9068 = test: MIC, broth dilution; format: cell-based, Acinetobacter baumannii; settings: CLSI broth dilution, MHB, 37°C, 20 h, OD630, at least three repeats; clinical isolate, CRE, MDR
From the text: as §2

A. baumannii 906 = test: MIC, broth dilution; format: cell-based, Acinetobacter baumannii; settings: CLSI broth dilution, MHB, 37°C, 20 h, OD630, at least three repeats; clinical isolate, CRE, MDR
From the text: as §2

S. epidermidis 888 [9] = test: MIC, broth dilution; format: cell-based; settings: CLSI broth dilution, MHB, 37°C, 20 h, OD630, at least three repeats; clinical isolate
From the text: as §2

E. faecalis 901 [10] = test: MIC, broth dilution; format: cell-based; settings: CLSI broth dilution, MHB, 37°C, 20 h, OD630, at least three repeats; clinical isolate
From the text: as §2

S. epidermidis 6943 [11] = test: MIC, broth dilution; format: cell-based; settings: CLSI broth dilution, MHB, 37°C, 20 h, OD630, at least three repeats; clinical isolate, MRSE
From the text: as §2

S. epidermidis 9092 [12] = test: MIC, broth dilution; format: cell-based; settings: CLSI broth dilution, MHB, 37°C, 20 h, OD630, at least three repeats; clinical isolate, MRSE
From the text: as §2

P. aeruginosa 9042 = test: MIC, broth dilution; format: cell-based, Pseudomonas aeruginosa; settings: CLSI broth dilution, MHB, 37°C, 20 h, OD630, at least three repeats; clinical isolate
From the text: as §2

P. aeruginosa 9014 = test: MIC, broth dilution; format: cell-based, Pseudomonas aeruginosa; settings: CLSI broth dilution, MHB, 37°C, 20 h, OD630, at least three repeats; clinical isolate, CRE, MDR
From the text: as §2

K. pneumoniae 9126 = test: MIC, broth dilution; format: cell-based, Klebsiella pneumoniae; settings: CLSI broth dilution, MHB, 37°C, 20 h, OD630, at least three repeats; clinical isolate, CRE
From the text: as §2

S. aureus 9124 [13] = test: MIC, broth dilution; format: cell-based, Staphylococcus aureus; settings: CLSI broth dilution, MHB, 37°C, 20 h, OD630, at least three repeats; clinical isolate, MRSA
From the text: as §2

S. aureus 1176 [14] = test: MIC, broth dilution; format: cell-based, Staphylococcus aureus; settings: CLSI broth dilution, MHB, 37°C, 20 h, OD630, at least three repeats; clinical isolate
From the text: as §2

S. aureus 4188 [15] = test: MIC, broth dilution; format: cell-based, Staphylococcus aureus; settings: CLSI broth dilution, MHB, 37°C, 20 h, OD630, at least three repeats; clinical isolate, penicillin-resistant
From the text: as §2

[16] = test system: K. pneumoniae ATCC 700603; test: MIC, broth dilution; format: cell-based, Klebsiella pneumoniae; settings: CLSI broth dilution, MHB, 37°C, 20 h, OD630, at least three repeats; standard strain
Procedure: as §2
(§3) To study the influence of physiological ions on the antimicrobial activities of the peptides, The MICs of the peptides were also determined against the standard bacterial strains cultured in MHB containing various salts at their physiological concentrations (150 mM NaCl, 4.5 mM KCl, 1 mM MgCl2, 2 mM CaCl2, 6 μM NH4HCO3, and 4 μM FeCl3) ([Ma et al., 2016]).

A. baumannii ATCC 19606 = test: MIC, broth dilution; format: cell-based, Acinetobacter baumannii; settings: CLSI broth dilution, MHB, 37°C, 20 h, OD630, at least three repeats; standard strain
Procedure: as §2, §3

E. coli ATCC35218 = test: MIC, broth dilution; format: cell-based, Escherichia coli; settings: CLSI broth dilution, MHB, 37°C, 20 h, OD630, at least three repeats; standard strain
From the text: as §2

E. coli 2687 = test: MIC, broth dilution; format: cell-based, Escherichia coli; settings: CLSI broth dilution, MHB, 37°C, 20 h, OD630, at least three repeats; clinical isolate, ESBL
From the text: as §2

E. coli 2678 = test: MIC, broth dilution; format: cell-based, Escherichia coli; settings: CLSI broth dilution, MHB, 37°C, 20 h, OD630, at least three repeats; clinical isolate, ESBL
From the text: as §2

E. faecium 898 [17] = test: MIC, broth dilution; format: cell-based, Enterococcus faecium; settings: CLSI broth dilution, MHB, 37°C, 20 h, OD630, at least three repeats; clinical isolate
From the text: as §2

Compound	Drug sensitivity of the isolate to the antibiotic (S. epidermidis 888 [1])	Drug sensitivity of the isolate to the antibiotic (E. faecalis 901 [2])	Drug sensitivity of the isolate to the antibiotic (S. epidermidis 6943 [3])	Drug sensitivity of the isolate to the antibiotic (S. epidermidis 9092 [4])	Drug sensitivity of the isolate to the antibiotic (E. faecium 898 [5])	Drug sensitivity of the isolate to the antibiotic (S. aureus 9124 [6])	Drug sensitivity of the isolate to the antibiotic (S. aureus 1176 [7])	Drug sensitivity of the isolate to the antibiotic (S. aureus 4188 [8])	other results
CC[C@H]1OC(=O)[C@H](C)[C@@H](O[C@H]2C[C@@](C)(OC)[C@@H](O)[C@H](C)O2)[C@H](C)[C@@H](O[C@@H]2O[C@H](C)C[C@H](N(C)C)[C@H]2O)[C@](C)(O)C[C@@H](C)C(=O)[C@H](C)[C@@H](O)[C@]1(C)O [Erythromycin]	R	R	R	R	R	R	R	S	
CNC(C)C1CCC(N)C(OC2C(N)CC(N)C(OC3OCC(C)(O)C(NC)C3O)C2O)O1 (stereo not shown) [Gentamicin]	R	R	S	R	R	S	S	S	
CC[C@H](C)[C@H](NC(=O)CN)C(=O)NCC(=O)N[C@@H](C)C(=O)N[C@H](C(=O)N[C@@H](CC(C)C)C(=O)N[C@@H](CCCCN)C(=O)N[C@H](C(=O)N[C@@H](CC(C)C)C(=O)N[C@H](C(=O)N[C@H](C(=O)NCC(=O)N[C@@H](CC(C)C)C(=O)N1CCC[C@H]1C(=O)N[C@@H](C)C(=O)N[C@@H](CC(C)C)C(=O)N[C@H](C(=O)N[C@@H](CO)C(=O)N[C@@H](Cc1c[nH]c2ccccc12)C(=O)N[C@H](C(=O)N[C@@H](CCCCN)C(=O)N[C@@H](CCCNC(=N)N)C(=O)N[C@@H](CCCCN)C(=O)N[C@@H](CCCNC(=N)N)C(=O)N[C@@H](CCC(N)=O)C(=O)N[C@@H](CCC(N)=O)C(N)=O)[C@@H](C)CC)[C@@H](C)CC)[C@@H](C)O)[C@@H](C)O)C(C)C)C(C)C [Melittin]									MIC (A. baumannii 13012): 2.5 µg/mL (≈ 0.878 µM); MIC (A. baumannii 13079): 2.5 µg/mL (≈ 0.878 µM); MIC (A. baumannii 9068): 2.5 µg/mL (≈ 0.878 µM); MIC (A. baumannii 906): 2.5 µg/mL (≈ 0.878 µM); MIC (S. epidermidis 888 [9]): 2.5 µg/mL (≈ 0.878 µM); MIC (E. faecalis 901 [10]): 2.5 µg/mL (≈ 0.878 µM); MIC (S. epidermidis 6943 [11]): 2.5 µg/mL (≈ 0.878 µM); MIC (S. epidermidis 9092 [12]): 2.5 µg/mL (≈ 0.878 µM); MIC (P. aeruginosa 9042): 5 µg/mL (≈ 1.76 µM); MIC (P. aeruginosa 9014): 5 µg/mL (≈ 1.76 µM); MIC (K. pneumoniae 9126): 5 µg/mL (≈ 1.76 µM); MIC (S. aureus 9124 [13]): 2.5 µg/mL (≈ 0.878 µM); MIC (S. aureus 1176 [14]): 5 µg/mL (≈ 1.76 µM); MIC (S. aureus 4188 [15]): 2.5 µg/mL (≈ 0.878 µM); MIC [16]: 5 µg/mL (≈ 1.76 µM); MIC (A. baumannii ATCC 19606): 2.5 µg/mL (≈ 0.878 µM); MIC (E. coli ATCC35218): 5 µg/mL (≈ 1.76 µM); MIC (E. coli 2687): 2.5 µg/mL (≈ 0.878 µM); MIC (E. coli 2678): 5 µg/mL (≈ 1.76 µM); MIC (E. faecium 898 [17]): 5 µg/mL (≈ 1.76 µM)
CO[C@H]1/C=C/O[C@@]2(C)Oc3c(C)c(O)c4c(O)c(c(/C=N/N5CCN(C)CC5)c(O)c4c3C2=O)NC(=O)/C(C)=C\C=C\[C@H](C)[C@H](O)[C@@H](C)[C@@H](O)[C@@H](C)[C@H](OC(C)=O)[C@@H]1C [Rifampin]	S	R	S	S	R	S	S	S	
Penicillin	S	S	R	R	R	R	R	R	
